As usually defined, the AC50 is the concentration giving half of the maximal activity seen.

Assay [1] deals with T1, 5-hydroxytryptamine receptor 1A (Homo sapiens, UniProt P08908).
T1 sequence (P08908 whole entry): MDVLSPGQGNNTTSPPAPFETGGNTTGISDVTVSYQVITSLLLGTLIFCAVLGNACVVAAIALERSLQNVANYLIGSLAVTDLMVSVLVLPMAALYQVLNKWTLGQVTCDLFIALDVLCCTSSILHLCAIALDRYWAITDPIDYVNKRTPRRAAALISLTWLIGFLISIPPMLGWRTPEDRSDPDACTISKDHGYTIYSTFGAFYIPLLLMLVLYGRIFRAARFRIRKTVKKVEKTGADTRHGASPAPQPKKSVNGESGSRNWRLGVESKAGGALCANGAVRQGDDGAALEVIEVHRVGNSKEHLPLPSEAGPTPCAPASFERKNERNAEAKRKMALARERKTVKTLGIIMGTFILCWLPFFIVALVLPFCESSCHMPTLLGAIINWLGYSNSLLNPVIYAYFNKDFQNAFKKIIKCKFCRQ

For assay [2], the target named is Prothrombin (Homo sapiens, UniProt P00734). The assay is classed as functional.
The target in assay [3] is T2, Thromboxane A2 receptor (Homo sapiens, UniProt P21731).
T2 sequence (P21731 whole entry): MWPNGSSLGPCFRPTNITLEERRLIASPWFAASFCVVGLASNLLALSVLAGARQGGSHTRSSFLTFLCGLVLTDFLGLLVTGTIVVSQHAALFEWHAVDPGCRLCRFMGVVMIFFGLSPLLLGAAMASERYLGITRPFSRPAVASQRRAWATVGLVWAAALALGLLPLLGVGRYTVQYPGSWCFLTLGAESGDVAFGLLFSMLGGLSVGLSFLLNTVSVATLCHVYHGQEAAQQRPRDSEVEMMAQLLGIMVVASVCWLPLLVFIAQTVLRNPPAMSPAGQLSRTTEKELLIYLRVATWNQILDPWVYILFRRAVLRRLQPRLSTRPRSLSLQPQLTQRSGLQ
The assay is classed as functional, cell-based.
Note: assay procedure not described here.

With `COC(c1ccccc1)(c1ccccc1)[C@H](Oc1nc(C)cc(C)n1)C(=O)O` [AMBRISENTAN], the half-maximal activity concentration (AC50) in assay [1], in assay [2] and in assay [3] was more than 30 µM in each case.

Take `CCc1oc2ccccc2c1C(=O)c1cc(I)c(O)c(I)c1` [BENZIODARONE]: the AC50 was 12.4 µM in assay [1], more than 30 µM in assay [2] and 29 µM in assay [3].

Consider `CN(C)CCn1nnnc1SCC1=C(C(=O)O)N2C(=O)[C@@H](NC(=O)Cc3csc(N)n3)[C@H]2SC1` [CEFOTIAM], for which the AC50 in assay [1], in assay [2] and in assay [3] was more than 30 µM each time.

Turning to `COCc1c(C(C)C)nc(C(C)C)c(/C=C/[C@@H](O)C[C@@H](O)CC(=O)O)c1-c1ccc(F)cc1` [CERIVASTATIN], the AC50 in assay [1], in assay [2] and in assay [3] was more than 30 µM throughout.

For the molecule `Oc1c(Cl)cc(Cl)c2cccnc12` [CHLOROXINE], the AC50 in assay [1] was 17.2 µM; in assay [2], more than 30 µM; in assay [3], more than 30 µM.

For the molecule `C[N+](C)(C)CCO` [CHOLINE], the AC50 in assay [1], in assay [2] and in assay [3] was more than 30 µM each time.

Turning to `CN(C)[C@@H](c1cccc(O)c1)[C@H]1CCCC[C@H]1O` [CIRAMADOL], the AC50 in assay [1], in assay [2] and in assay [3] was more than 30 µM in each case.

As to `CN(C)CC(c1ccc(O)cc1)C1(O)CCCCC1` (stereo not given) [DESVENLAFAXINE], the AC50 in assay [1], in assay [2] and in assay [3] was more than 30 µM throughout.

Turning to `CN(C)CCN1C(=O)c2ccccc2N(C)c2ccccc21` [DIBENZEPIN], the AC50 was 0.306 µM in assay [1], more than 30 µM in assay [2] and more than 30 µM in assay [3].

On to `N[C@H](C(=O)O)[C@H](O)c1ccc(O)c(O)c1` [DROXIDOPA], for which the AC50 in assay [1], in assay [2] and in assay [3] was more than 30 µM throughout.

For `C[C@]12CC[C@@H]3c4ccc(O)cc4CC[C@H]3[C@@H]1C[C@@H](O)[C@@H]2O` [ESTRIOL], the AC50 in assay [1], in assay [2] and in assay [3] was more than 30 µM each time.

As for `Cc1cc(C#N)cc(C)c1Oc1nc(Nc2ccc(C#N)cc2)nc(N)c1Br` [ETRAVIRINE], the AC50 in assay [1] is more than 30 µM; in assay [2], more than 30 µM; in assay [3], more than 10 µM.

Take `O=C(O)c1cc(O)ccc1O` [GENTISIC ACID]: the AC50 in assay [1], in assay [2] and in assay [3] was more than 30 µM in each case.

`CCC1=C(C)CN(C(=O)NCCc2ccc(S(=O)(=O)NC(=O)N[C@H]3CC[C@H](C)CC3)cc2)C1=O` [GLIMEPIRIDE]: the concentration at half-maximal activity (AC50) in assay [1], in assay [2] and in assay [3] was more than 30 µM in each case.

With `CC(C)Nc1ncccn1` [ISAXONINE], the AC50 in assay [1], in assay [2] and in assay [3] was more than 30 µM throughout.

Consider `N[C@@H](C(=O)N[C@@H]1C(=O)N2C(C(=O)O)=C(Cl)CC[C@H]12)c1ccccc1` [LORACARBEF ANHYDROUS], for which the AC50 in assay [1], in assay [2] and in assay [3] was more than 30 µM throughout.

`OCCN1C[C@H](O)[C@@H](O)[C@H](O)[C@H]1CO` [MIGLITOL]: the AC50 in assay [1], in assay [2] and in assay [3] was more than 30 µM each time.

For the molecule `CC(=O)N[C@@H]1[C@@H](O)[C@H](O)[C@@H](CO)O[C@H]1O` [N-ACETYLGLUCOSAMINE], the AC50 in assay [1], in assay [2] and in assay [3] was more than 30 µM throughout.

As to `O=C(CCNNC(=O)c1ccncc1)NCc1ccccc1` [NIALAMIDE], the AC50 in assay [1], in assay [2] and in assay [3] was more than 30 µM throughout.

For `CC[N+]1(C)[C@@H]2CC(OC(=O)[C@H](CO)c3ccccc3)C[C@H]1[C@@H]1O[C@@H]12` (stereo not given in full) [OXITROPIUM], the AC50 in assay [1], in assay [2] and in assay [3] was more than 30 µM in each case.

The values are drawn from ChEMBL document CHEMBL5291721, “A preclinical secondary pharmacology resource illuminates target-adverse drug reaction associations of marketed drugs” (Nat Commun, 2023).
